The nature of data set [1]: acute toxicity, Behrens-Karber's method. The settings on record: in vivo; mouse, oral. It is filed as in vivo. The procedure:
In this example, the acute toxicity of compounds of the invention is determined by Behrens-Karber's method using, 5 male dd-strain for each group weighing 20±1 g. A 0.3% CMC suspension of the test compound (concentration of the test compound: 100 mg/ml) is then orally administered to each mouse.

The subject of data set [2] is rabbit blood platelets (platelet rich plasma), ADP-induced aggregation. Put plainly: inhibition of platelet aggregation in rabbit platelet rich plasma (in vitro), induced by ADP. As to conditions: Oryctolagus cuniculus, Platelet, read-out: percentage of inhibition, ADP; for inhibition at 10 µg/mL: 10 μg/ml; for inhibition at 3 µg/mL: 3 μg/ml. It is filed as cell-based. The procedure: (§1) In this example, the inhibition of platelet aggregation in rabbit platelet rich plasma (in vitro) is tested.
(§2) In this test, 9 vol. of blood is sampled from the carotid artery of rabbits (2 to 2.5 Kg) and placed in a silicon-coated flask containing 1 vol. of 3.8% sodium citrate. The thus obtained blood is centrifuged at 1,000 rpm for 15 minutes to obtain platelet rich plasma (referred to as "PRP" hereinafter). The aggregation of blood platelets is observed using an aggregometer (made by Bryston Co.) and the degree of aggregation after the addition of aggregation promoting substances is measured by nephelometry, i.e., through increase in light transmission.
(§3) The PRP (0.9 ml) is placed in a silicon-coated cuvett of the aggregometer. Then, 0.05 ml of physiological saline solution containing various concentrations of test reagents or control reagents is added and the mixture is allowed to stand for one minute. Compounds promoting aggregation are then added and the absorbancy of the solution is measured and the percent inhibition of aggregation is calculated according to the following equation: [formula] C: Transmittancy showing the maximum percent aggregation by physiological saline solution
(§4) D: Transmittancy showing the maximum percent aggregation by sample
(§5) Test for the inhibition of platelet aggregation induced by ADP, collagen and thrombin.

The subject of data set [3] is rabbit blood platelets (platelet rich plasma), collagen-induced aggregation. Put plainly: inhibition of platelet aggregation in rabbit platelet rich plasma (in vitro), induced by collagen. Type of data set: cell-based. As to conditions: Oryctolagus cuniculus, Platelet, read-out: percentage of inhibition, collagen; for inhibition at 10 µg/mL: 10 μg/ml; for inhibition at 3 µg/mL: 3 μg/ml; for inhibition at 1 µg/mL: 1 μg/ml. The procedure:
as §1, §2, §3, §4, §5

Data set [4] deals with human platelet rich plasma, collagen-induced aggregation. Put plainly: inhibition of platelet aggregation in human platelet rich plasma, induced by collagen. It is filed as cell-based. As to conditions: human PRP, read-out: percentage inhibition, collagen; for inhibition at 30 µg/mL: 30 μg/ml; for inhibition at 100 µg/mL: 100 μg/ml; for inhibition at 10 µg/mL: 10 μg/ml. The procedure: as §2, §3, §4
(§6) In this example, the same procedures are repeated as in Example 10 except that human platelet rich plasma is used in place of rabbit platelet rich plasma.

The subject of data set [5] is human platelet rich plasma, ADP-induced aggregation. Put plainly: inhibition of platelet aggregation in human platelet rich plasma, induced by ADP. Type of data set: cell-based. The settings on record: human PRP, read-out: percentage inhibition, ADP; for inhibition at 30 µg/mL: 30 μg/ml; for inhibition at 100 µg/mL: 100 μg/ml; for inhibition at 10 µg/mL: 10 μg/ml. The procedure:
as §2, §3, §4, §6

The mark [6] stands for this setting: rabbit PRP, ADP 10^-5 M, 100 μg/ml.
Where [7] appears, read: rabbit PRP, ADP 10^-5 M, 30 μg/ml.

The source of these data is patent US4705805A, “Antithrombotic agent” (priority 1978, dated 1987).

As a reminder, the LD50 is the dose at which mortality reaches 50%. The low end stands for a more toxic substance, the high end for a less toxic substance. Broadly, the inhibition is how much of the control response was suppressed.

The structures appear in SMILES notation. Read-outs that look alike come from different tables or passages of the source.

Molecule `O=C(NCc1ccccc1)c1ccccc1SSc1ccccc1C(=O)NCc1ccccc1` [Compound II, 2,2'-dithiobis(N-benzylbenzamide)] had an LD50 in data set [1] not below 300 mg/kg. Also, the inhibition at 100 µg/mL in data set [2] (setting [6]) is 2.7%; in data set [3] (rabbit PRP, 100 μg/ml), 1.2%.

Molecule `CCCCN(CCCC)C(=O)c1ccccc1SSc1ccccc1C(=O)N(CCCC)CCCC` [Compound VIII, 2,2'-dithiobis(N-dibutylbenzamide)] returned an LD50 in data set [1] not below 1000 mg/kg. The inhibition at 30 µg/mL in data set [2] (setting [7]) worked out at 0%; in data set [3] (rabbit PRP, 30 μg/ml), 0%. Further, the inhibition at 100 µg/mL worked out at 9% in data set [2] (setting [6]) and 13% in data set [3] (rabbit PRP, 100 μg/ml).

`O=C(Nc1ccccc1Cl)c1ccccc1SSc1ccccc1C(=O)Nc1ccccc1Cl` [Compound X, 2,2'-dithiobis(N-o-chlorophenylbenzamide)] came in with an LD50 in data set [1] not below 1000 mg/kg. Also, the inhibition at 10 µg/mL is 0% in data set [2] (rabbit PRP, ADP 10^-5 M) and 4% in data set [3] (rabbit PRP). Moreover, the inhibition at 30 µg/mL amounted to 24% in data set [2] (setting [7]) and 63% in data set [3] (rabbit PRP, 30 μg/ml). Moreover, the inhibition at 100 µg/mL in data set [2] (setting [6]) was 96%; in data set [3] (rabbit PRP, 100 μg/ml), 100%.

For the molecule `O=C(Nc1ccccc1[N+](=O)[O-])c1ccccc1SSc1ccccc1C(=O)Nc1ccccc1[N+](=O)[O-]` [Compound XII, 2,2'-dithiobis(N-o-nitrophenylbenzamide)], in data set [1], the LD50 was not below 1000 mg/kg. For the same molecule, in data set [2], the inhibition at 30 µg/mL came out at 20% and the inhibition at 100 µg/mL amounted to 50%. Further, in data set [3], the inhibition at 30 µg/mL was found to be 45% and the inhibition at 100 µg/mL was 90%.

In turn, `CCCCCCCCCCCC(=O)OCCNC(=O)c1ccccc1SSc1ccccc1C(=O)NCCOC(=O)CCCCCCCCCCC` [Compound XIX, 2,2'-dithiobis(N-2-dodecanoyloxyethylbenzamide)] registered an LD50 in data set [1] not below 1000 mg/kg. Moreover, the inhibition at 30 µg/mL in data set [2] (setting [7]) amounted to 12%; in data set [3] (rabbit PRP, 30 μg/ml), 54%; in data set [4], 16%; in data set [5], 5%. Moreover, the inhibition at 100 µg/mL in data set [2] (setting [6]) came out at 72%; in data set [3] (rabbit PRP, 100 μg/ml), 100%; in data set [4] it was 46%; in data set [5] it was 35%.

In data set [1], `O=C(NCCCN1CCOCC1)c1ccccc1SSc1ccccc1C(=O)NCCCN1CCOCC1` [Compound XL, 2,2'-dithiobis(N-3-morpholinopropylbenzamide)] showed an LD50 not below 1000 mg/kg. The inhibition at 3 µg/mL in data set [2] (rabbit PRP, ADP 10^-5 M) turned out to be 26%; in data set [3] (rabbit PRP) it was 21%. Moreover, the inhibition at 10 µg/mL in data set [2] (rabbit PRP, ADP 10^-5 M) was determined as 69%; in data set [3] (rabbit PRP), 98%; in data set [4] it was 40%; in data set [5] it was 65%. Further, the inhibition at 30 µg/mL in data set [2] (setting [7]) was 100%; in data set [3] (rabbit PRP, 30 μg/ml), 100%; in data set [4] it was 100%; in data set [5] it was 85%. The inhibition at 100 µg/mL in data set [3] (rabbit PRP, 100 μg/ml) stood at 100%; in data set [4] it was 100%; in data set [5] it was 100%.

In turn, `O=C(NC(CO)(CO)CO)c1ccccc1SSc1ccccc1C(=O)NC(CO)(CO)CO` [Compound XLI, 2,2'-dithiobis[N-2-hydroxy-1,1-di-(1'-hydroxymethyl)-ethylbenzamide]] had an LD50 in data set [1] not below 1000 mg/kg. For the same molecule, the inhibition at 30 µg/mL in data set [2] (setting [7]) worked out at 22%; in data set [3] (rabbit PRP, 30 μg/ml), 7%. The inhibition at 100 µg/mL amounted to 71% in data set [2] (setting [6]) and 96% in data set [3] (rabbit PRP, 100 μg/ml).

`COCCNC(=O)c1ccccc1SSc1ccccc1C(=O)NCCOC` [Compound XVIII, 2,2'-dithiobis(N-2-methyloxyethylbenzamide)] yielded an LD50 in data set [1] not below 1000 mg/kg. Besides, the inhibition at 100 µg/mL in data set [2] (setting [6]) was determined as 75%; in data set [3] (rabbit PRP, 100 μg/ml) it was 100%; in data set [4] it was 100%; in data set [5], 65%. Besides, the inhibition at 10 µg/mL in data set [3] (rabbit PRP) is 40%; in data set [4], 10%. Also, the inhibition at 30 µg/mL amounted to 100% in data set [3] (rabbit PRP, 30 μg/ml); 45% in data set [4]; 20% in data set [5].

Take `CCOC(CN1CCN(C(=O)c2ccccc2SSc2ccccc2C(=O)N2CCN(CC(OCC)c3ccccc3)CC2)CC1)c1ccccc1` (stereo not drawn) [Compound XXIX, 2,2'-dithiobis[N'-(2-phenyl-2-ethyloxyethyl)benzpiperazide]]: the LD50 in data set [1] is not below 1000 mg/kg. Also, the inhibition at 10 µg/mL in data set [2] (rabbit PRP, ADP 10^-5 M) worked out at 32%; in data set [3] (rabbit PRP), 55%. In addition, the inhibition at 30 µg/mL in data set [2] (setting [7]) is 43%; in data set [3] (rabbit PRP, 30 μg/ml) it was 100%. The inhibition at 3 µg/mL in data set [3] (rabbit PRP) came to 0%.

As for `O=C(NCCNCCO)c1ccccc1SSc1ccccc1C(=O)NCCNCCO` [Compound XXV, 2,2'-dithiobis[N-2-(2-hydroxyethylamino)-ethylbenzamide]], the LD50 in data set [1] was not below 1000 mg/kg. The inhibition at 30 µg/mL in data set [2] (setting [7]) was 10%; in data set [3] (rabbit PRP, 30 μg/ml), 42%; in data set [4], 4%. Also, the inhibition at 100 µg/mL in data set [4] came out at 25%; in data set [5], 10%.

In data set [1], `O=C(NC1CCCCC1)c1ccccc1SSc1ccccc1C(=O)NC1CCCCC1` [Compound XXVI, 2,2'-dithiobis(N-cyclohexylbenzamide)] came in with an LD50 not below 1000 mg/kg. Besides, the inhibition at 30 µg/mL in data set [2] (setting [7]) is 30%; in data set [3] (rabbit PRP, 30 μg/ml) it was 25%.

`O=C(c1ccccc1SSc1ccccc1C(=O)N1CCOCC1)N1CCOCC1` [Compound XXVII, 2,2'-dithiobis(benzmorpholide)] returned an LD50 in data set [1] not below 1000 mg/kg. In addition, the inhibition at 3 µg/mL in data set [2] (rabbit PRP, ADP 10^-5 M) was determined as 40%; in data set [3] (rabbit PRP), 59%. Moreover, the inhibition at 10 µg/mL turned out to be 60% in data set [2] (rabbit PRP, ADP 10^-5 M); 100% in data set [3] (rabbit PRP); 0% in data set [4]. Moreover, the inhibition at 30 µg/mL in data set [2] (setting [7]) was 100%; in data set [3] (rabbit PRP, 30 μg/ml), 100%; in data set [4], 35%; in data set [5] it was 5%. In addition, the inhibition at 1 µg/mL in data set [3] (rabbit PRP) amounted to 40%. Further, the figures for the inhibition at 100 µg/mL in data set [4] and in data set [5] were 100% and 45%, respectively.

As for `O=C(c1ccccc1SSc1ccccc1C(=O)N1CCN(c2ccccc2)CC1)N1CCN(c2ccccc2)CC1` [Compound XXVIII, 2,2'-dithiobis(N'-phenylbenzpiperazide)], the LD50 in data set [1] is not below 1000 mg/kg. For the same molecule, the inhibition at 10 µg/mL was found to be 19% in data set [2] (rabbit PRP, ADP 10^-5 M) and 55% in data set [3] (rabbit PRP). Further, the inhibition at 30 µg/mL in data set [2] (setting [7]) was 55%; in data set [3] (rabbit PRP, 30 μg/ml), 99%. Further, the inhibition at 3 µg/mL in data set [3] (rabbit PRP) stood at 14%.

For `O=C(c1ccccc1SSc1ccccc1C(=O)N1CCN(CC=Cc2ccccc2)CC1)N1CCN(CC=Cc2ccccc2)CC1` [Compound XXX, 2,2'-dithiobis[N'-(3-phenyl-propene-1-yl)benzpiperazide]], the LD50 in data set [1] is not below 1000 mg/kg. For the same molecule, the inhibition at 30 µg/mL came to 17% in data set [2] (setting [7]) and 40% in data set [3] (rabbit PRP, 30 μg/ml).

Regarding `O=C(NCCO)c1cc(Cl)ccc1SSc1ccc(Cl)cc1C(=O)NCCO` [Compound XXXI, 2,2'-dithiobis(5-chloro-N-2-hydroxyethyl)benzamide], the LD50 in data set [1] was not below 1000 mg/kg. In addition, the inhibition at 3 µg/mL in data set [2] (rabbit PRP, ADP 10^-5 M) was 0%; in data set [3] (rabbit PRP), 100%. Moreover, the inhibition at 10 µg/mL in data set [2] (rabbit PRP, ADP 10^-5 M) is 43%; in data set [3] (rabbit PRP), 100%; in data set [4] it was 12%; in data set [5] it was 10%. Moreover, the inhibition at 30 µg/mL turned out to be 80% in data set [2] (setting [7]); 100% in data set [3] (rabbit PRP, 30 μg/ml); 60% in data set [4]; 50% in data set [5]. Further, the inhibition at 100 µg/mL stood at 100% in data set [2] (setting [6]); 100% in data set [3] (rabbit PRP, 100 μg/ml); 100% in data set [4]; 88% in data set [5]. Besides, in data set [3] (rabbit PRP), the inhibition at 1 µg/mL was determined as 26%.
